The values below are quoted from earlier work in US20230380414A1, “SYSTEMS, DEVICES AND METHODS FOR DELIVERING AEROSOLIZED FLUOROCARBONS” (BOUNDLESS SCIENCE, LLC, priority 2020, published 2023).

The conditions of data set [1]: cited from earlier work.
The conditions of data set [2]: cited from earlier work; for Enthalpy of Vap. H: Table 1; for enthalpies of vaporization: running text.
The conditions of data set [3]: cited from earlier work; for Den: Table 1; for Specific Gravity: partial list of fluorinated and perfluorinated liquids.
For data set [4] the following is noted: Table 1; cited from earlier work.
The conditions of data set [5]: cited from earlier work; for Spec. Ht Liq C: liquid.
The conditions of data set [6]: @ 20° C.; cited from earlier work.
The conditions of data set [7]: Table 1; cited from earlier work. The source holds these as a separate data set.
The conditions of data set [8]: in water; cited from earlier work.
Setting [9] is: Other perfluorinated liquids and their boiling points.
Where [10] appears, read: partial list of fluorinated and perfluorinated liquids.
The mark [11] stands for this setting: commercial hydrofluoroalkanes, unit not given.

Where two headings read alike, the source gives them in different places.

Take `OCC(F)(F)F` [2,2,2-trifluoroethanol]: in data set [1] (setting [9]), the Boiling point is 78 °C.
Regarding `FC(F)C(F)(F)C(F)(F)C(F)(F)C(F)(F)C(F)(F)C(F)(F)C(F)(F)F` [1H-Perfluorooctane, Heptadecafluorooctane], in data set [1] (setting [10]), the “Boiling point” value was 117 °C.
Regarding `FC(F)(F)C(F)(F)C(F)(F)F` [perfluoropropane], the Boiling point in data set [1] (setting [9]), in data set [1] (Table 2) and in data set [1] (Table 4) was −36.7 °C in each case.
Take `OCC(F)(F)OC(F)(F)C(F)(F)OC(F)(F)C(F)(F)C(F)(F)C(F)(F)F` [1H,1H-Perfluoro-3,6-dioxadecan-1-ol]: in data set [1] (setting [10]), the “Boiling point” value is 150 °C.
As for “Perfluoro(triethylene glycol dimethyl ether) [Perfluorotriglyme]”, in data set [1] (setting [10]), the “Boiling point” value is 106 °C.
Regarding `FC(F)(F)C(F)(F)C(F)(F)C(F)(F)C(F)(F)C(F)(F)C(F)(F)F` [perfluoroheptane, Hexadecafluoroheptane], the “Enthalpy of Vap. H” value in data set [2] was 90 kJ/kg. Besides, the Den in data set [3] was 1.75 g/mL. The “Specific Gravity” value in data set [3] is 1.72. For the same compound, in data set [4], the Viscosity was 0.900 cPs. In addition, the Boiling point is 56.0 °C in data set [1] (setting [9]); 82 °C in data set [1] (Table 1); 56.0 °C in data set [1] (Table 2); 56.0 °C in data set [1] (Table 4); 80-82 °C in data set [1] (setting [10]). The “Spec Ht gas C” value in data set [5] is given as 0.82 KJ/Kg/C. Also, in data set [5], the “Spec. Ht Liq C” value is on record as 0.64 KJ/Kg/C.
For the compound `FC1(F)C(F)(F)C(F)(F)C2(F)C(F)(F)C(F)(F)C(F)(F)C(F)(F)C2(F)C1(F)F` (stereo not drawn) [Perfluorodecalin, Octadecafluorodecalin], the “Enthalpy of Vap. H” value in data set [2] is 85 kJ/kg. The Den in data set [3] is 1.92 g/mL. The Viscosity in data set [4] was 5.100 cPs. Moreover, in data set [6], the “Vapor Pressure” value was 6 torr @ 20 °C. Besides, in data set [7], the “O2 Solubility” value is 49 ml/100 ml. Besides, the “Spec. Ht Liq C” value in data set [5] is on record as 1.05 KJ/Kg/C.
As to `FC(F)C(F)(F)C(F)(F)C(F)(F)C(F)(F)C(F)(F)C(F)(F)C(F)F` [1H,8H-Perfluorooctane, Hexadecafluorooctane], the “Boiling point” value in data set [1] (setting [10]) was 134 °C.
In the case of `OCC(F)(F)C(F)(C(F)(F)F)C(F)(F)C(F)(F)C(F)(F)C(F)(C(F)(F)F)C(F)(F)F` (stereo not drawn) [Perfluoro-3,7-dimethyloctan-1-ol, 3,7-Bis(trifluoromethyl)tridecafluorooctanol], the Solubility entry in data set [8] is given as “Insoluble in”. In addition, the “Boiling point” value in data set [1] (20 mmHg) was 95° C./20.
Take `COC(F)(F)C(F)(F)C(F)(F)C(F)(F)F` [methyl perfluorobutylether]: the Boiling point in data set [1] (setting [9]) is 60 °C.
Consider `FC(F)(F)C(F)(F)C(F)(F)C(F)(F)F` [Perfluorobutane], for which the “Enthalpy of Vap. H” value in data set [2] was 88 kJ/kg. The enthalpies of vaporization in data set [2] is 88 kJ/kg. For the same compound, the Den in data set [3] was 1.63 g/mL. In addition, the Viscosity in data set [4] was 0.012 cPs. For the same compound, the Boiling point in data set [1] (setting [9]) is −1.7 °C; in data set [1] (Table 1), −1.8 °C; in data set [1] (Table 2), −1.7 °C; in data set [1] (Table 4), −1.7 °C; in data set [1] it was −1.7 C; in data set [1] (listed as perfiiuorobutane) it was −1.7 °C. The “Spec Ht gas C” value in data set [5] was 0.69 KJ/Kg/C. Also, in data set [5], the “Spec. Ht Liq C” value is recorded as 0.53 KJ/Kg/C.
For the compound `FC(F)C(F)(F)C(F)(F)C(F)(F)C(F)(F)C(F)(F)C(F)(F)C(F)(F)C(F)(F)F` [1H-Perfluorononane, Nonadecafluorononane], the “Boiling point” value in data set [1] (setting [10]) is 138 °C.
In the case of `FC(F)(F)C(F)(F)C(F)(F)C(F)(F)C(F)(F)C(F)(F)C(F)(F)C(F)(F)C(F)(F)F` [Perfluorononane, Eicosafluorononane], the “Specific Gravity” value in data set [3] is given as 1.799.
Regarding `FC(F)C(F)(F)C(F)(F)C(F)(F)C(F)(F)C(F)F` [1H,6H-Perfluorohexane, Dodecafluorohexane], the “Boiling point” value in data set [1] (setting [10]) was 93 °C.
`FC1(F)C(F)(F)C(F)(F)C2(F)C(F)(C1(F)F)C(F)(F)C(F)(F)C1(F)C(F)(F)C(F)(F)C(F)(F)C(F)(F)C12F` (stereo not drawn) [Perfluoroperhydrophenanthrene]: the Boiling point in data set [1] (setting [9]), in data set [1] (Table 2) and in data set [1] (Table 4) was 215 °C throughout.
Take `FC(F)C(F)(F)C(F)(F)C(F)(F)C(F)(F)C(F)(F)C(F)(F)F` [1H-Perfluoroheptane, Pentadecafluoroheptane]: the “Boiling point” value in data set [1] (setting [10]) was 97 °C.
On to `FC(F)C(F)(F)C(F)(F)C(F)F` [1H.4H-Perfluorobutane, Octafluorobutane], for which, in data set [1] (setting [10]), the “Boiling point” value was 45 °C.
For `FC(C(F)(F)F)C(F)(F)F` [HFA227ea ™], the “Boiling point” value in data set [1] (setting [11]) is reported as −17.
`OCC(F)(F)OC(F)(F)C(F)(F)OC(F)(F)C(F)(F)OC(F)(F)C(F)(F)C(F)(F)C(F)(F)F` [1H,1H-Perfluoro-3,6,9-trioxatridecan-1-ol]: the “Boiling point” value in data set [1] (setting [10]) was 175-176 °C.
`COC(F)(F)C(F)(F)C(F)(F)F` [methyl perfluoropropyl ether]: the Boiling point in data set [1] (setting [9]) was 34 °C.
As to `FCC(F)(F)F` [HFA 134a ™], the “Boiling point” value in data set [1] (setting [11]) is listed as −26.
Regarding `FC(F)(F)C(F)(F)C(F)(F)C(F)(F)C(F)(F)C(F)(F)C(F)(F)C(F)(F)F` [Perfluorooctane, Octadecafluorooctane], in data set [2], the “Enthalpy of Vap. H” value was 76 kJ/kg. Besides, the Den in data set [3] is 1.77 g/mL. The “Specific Gravity” value in data set [3] was 1.73. Further, the Viscosity in data set [4] was 1.800 cPs. For the same compound, the Boiling point was 377 °C in data set [1] (Table 1), 103.0 °C in data set [1] (Table 2), 103.0 °C in data set [1] (Table 4) and 103-104 °C in data set [1] (setting [10]).
`FC(F)C(F)(F)C(F)(F)C(F)(F)C(F)(F)C(F)(F)F` [1H-Perfluorohexane, Tridecafluorohexane]: the “Boiling point” value in data set [1] (setting [10]) is 70 °C.
`FC(F)(F)C(F)(F)C(F)(F)C(F)(F)C(F)(F)C(F)(F)F` [C6F14]: in data set [2], the “Enthalpy of Vap. H” value was 93 kJ/kg. Further, the Den in data set [3] was 1.69 g/mL. The Viscosity in data set [4] is given as 0.979 cPs. Further, the Boiling point in data set [1] (Table 1) is 69 °C. Also, in data set [5], the “Spec Ht gas C” value is recorded as 0.78 KJ/Kg/C and the “Spec. Ht Liq C” value is listed as 0.71 KJ/Kg/C.
`FC(F)(F)C(F)(F)C(F)(F)C(F)(F)C(F)(F)C(F)(F)C(F)(F)C(F)(F)Br` [Perfluorooctylbromide]: the Boiling point in data set [1] (setting [9]), in data set [1] (Table 2) and in data set [1] (Table 4) was 142 °C each time.
For the compound `FC(F)(F)C(F)(F)C(F)(F)C(F)(F)C(F)(F)F` [perfluoropentane], in data set [2], the “Enthalpy of Vap. H” value is 94 kJ/kg. In data set [2], the enthalpies of vaporization was 94 kJ/kg. In addition, in data set [3], the Den is 1.59 g/mL. Besides, the Viscosity in data set [4] was 0.460 cPs. Moreover, in data set [7], the “O2 Solubility” value was 54 ml/100 ml. The Boiling point in data set [1] (setting [9]) was 28.0 °C; in data set [1] (Table 1) it was 30 °C; in data set [1] (Table 2), 28.0 °C; in data set [1] (Table 4), 28.0 °C; in data set [1] (running text) it was 30 C. For the same compound, the “Specific Heat” value in data set [5] (chilled aerosolized liquid) is listed as 1.05 KJ/Kg*C. Moreover, the “Spec Ht gas C” value in data set [5] is recorded as 1.02 KJ/Kg/C. Also, the “Spec. Ht Liq C” value in data set [5] was 1.05 KJ/Kg/C.
`FC(F)(F)C(F)(C(F)(F)F)C(F)(C(F)(F)F)C(F)(F)F` [Perfluoro-(2,3-Dimethylbutane), 1,1,1,2,3,4,4,4-Octafluoro-2,3-bis(trifluoromethyl)butane]: in data set [3], the “Specific Gravity” value is 1.7729.
Regarding `FC(F)C(F)(F)C(F)(F)C(F)(F)C(F)(F)F` [1H-Perfluoropentane, Undecafluoropentane], the “Boiling point” value in data set [1] (setting [10]) is 42 °C.
Regarding `OCC(F)(F)C(F)(F)C(F)(F)C(F)(F)F` [1H, 1H-Perfluoro-1-pentanol, 1H, 1H-Nonafluoro-1-pentanol], in data set [1] (setting [10]), the “Boiling point” value was 110-111 °C.
Turning to `FC(F)(F)C(F)(F)C(F)(F)C(F)(F)C(F)(F)C(F)(F)F` [Perfluorohexane], the Boiling point in data set [1] (setting [9]), in data set [1] (Table 2) and in data set [1] (Table 4) was 56.0 °C throughout.
Regarding `FC(F)(F)C(F)(F)C(F)(F)C(F)(F)N(C(F)(F)C(F)(F)C(F)(F)C(F)(F)F)C(F)(F)C(F)(F)C(F)(F)C(F)(F)F` [perfluoro tributyl amine], the Boiling point in data set [1] (setting [9]), in data set [1] (Table 2) and in data set [1] (Table 4) was 178 °C in each case.
Consider “Perfluoro(triethylene glycol dimethyl ether) [Perfluorotetraglyme]”, for which, in data set [1] (setting [10]), the “Boiling point” value is 138 °C.
`FC(F)(F)C(F)(F)C(F)(F)C(F)(F)C(F)(F)N(C(F)(F)C(F)(F)C(F)(F)C(F)(F)C(F)(F)F)C(F)(F)C(F)(F)C(F)(F)C(F)(F)C(F)(F)F` [perfluorotripentyl amine]: the Boiling point in data set [1] (setting [9]), in data set [1] (Table 2) and in data set [1] (Table 4) was 215 °C throughout.
